Source: patent US20180244653A1, “SELECTIVE ALPHA-7 NICOTINIC RECEPTOR AGONISTS AND METHODS FOR MAKING AND USING THEM” (THE REGENTS OF THE UNIVERSITY OF CALIFORNIA, priority 2015, published 2018)
“And” between values parts separate entries of the source, which are not always exact repeats. Equal values may be shown once. “Also recorded” adds a separate entry of the source. Read-outs that look alike come from different tables or passages of the source.

Assays:
Assay in all cases: FRET functional assay (agonist/antagonist) using LGIC-CNiFERs
Assay type in all cases: cell-based
α7-nAChRs = target: T1, α7-nAChRs (Homo sapiens, UniProt P36544); details: for EC50: in presence of 10 μM PNU-120596, * partial agonist, read-out: Agonist EC50 ± SD, α7; for Functional properties at α7-nAChRs (agonist / antagonist): functional screening and characterization
T1 construct: expressed in transfected cells; host or cells: HEKtsA201 cells co-expressing TN-XXL
Procedure: (§1) Initially, the agonist properties of tested compounds were assessed directly. […] All α7-nAChR functional assays were performed in the presence of PNU-120596, an α7-nAChR positive allosteric modulator (PAM), to increase signal and delay the sensitization state of α7-nAChRs enabling the measurement of more prolonged FRET signals.^29 Compounds having agonist responses of >0.20 were determined for EC50, and compounds having inhibition fraction of >0.50 were determined for KA.^25 EC50>13.3 μM and KA>10 μM which are a screening concentration for agonist and antagonist, respectively were reported compounds not taken for further in the screening of receptor occupation and responses.
(§2) Agonist and antagonist elicited responses were characterized using the above CNiFER cell expressing Cys-loop ligand-gated ion channel (LGIC) receptors. […] A 96-well black, clear-bottom microplate (Greiner bio-one, Germany) was coated with poly-D-lysine (Sigma-Aldrich, St. Louis, Mo.) 50 μL/well for 30 min and washed out with Phosphate-Buffered Saline (PBS) (Corning, Cellgro, Manassas, Va.) before plating the cells. After plating and incubation at 37° C. for 1 day, the media was replaced with 100 μL of artificial cerebrospinal fluid (aCSF: 121 mM NaCl, 5 mM KCl, 26 mM NaHCO3, 1.2 mM NaH2PO4H2O, 10 mM glucose, 2.4 mM CaCl2, 1.3 mM MgSO4, 5 mM HEPES, pH 7.4) for 4032 and 5HT3A receptors, whereas 10 μM PNU-120596 (Tocris Bioscience, Bristol, UK) in aCSF with 30 min incubation at 37° C. was used for α7-nAChR. The tested compounds were prepared in aCSF for all receptors except α7-nAChR, where 10 μM PNU-120596, a positive allosteric modulator (PAM) was used. The prepared compounds were added in a separate 96-well polypropylene plate (Costar, Corning, N.Y.). Experiments were conducted at 37° C. using 436-nm excitation. Emitted light was collected at 485 nm and 528 nm. Basal fluorescence was recorded for 30 s, followed by addition of 50 μL of ligand (first addition). Measurements were made at 3.84 s intervals for 2 min to measure the agonistic effect. […] Agonist and antagonist properties were sequentially screened at the final concentration of 13.3 and 10 μM, respectively, which differed from the screening concentration from intact cell binding assay (10 μM).

5HT3A receptors = target: T2, 5HT3A receptors (Mus musculus, UniProt P23979); details: for Functional properties at 5HT3A receptors (agonist / antagonist, type): functional screening and characterization
T2 construct: expressed in transfected cells; host or cells: HEK293 cells co-expressing TN-XXL
T2 sequence (P23979 24-489): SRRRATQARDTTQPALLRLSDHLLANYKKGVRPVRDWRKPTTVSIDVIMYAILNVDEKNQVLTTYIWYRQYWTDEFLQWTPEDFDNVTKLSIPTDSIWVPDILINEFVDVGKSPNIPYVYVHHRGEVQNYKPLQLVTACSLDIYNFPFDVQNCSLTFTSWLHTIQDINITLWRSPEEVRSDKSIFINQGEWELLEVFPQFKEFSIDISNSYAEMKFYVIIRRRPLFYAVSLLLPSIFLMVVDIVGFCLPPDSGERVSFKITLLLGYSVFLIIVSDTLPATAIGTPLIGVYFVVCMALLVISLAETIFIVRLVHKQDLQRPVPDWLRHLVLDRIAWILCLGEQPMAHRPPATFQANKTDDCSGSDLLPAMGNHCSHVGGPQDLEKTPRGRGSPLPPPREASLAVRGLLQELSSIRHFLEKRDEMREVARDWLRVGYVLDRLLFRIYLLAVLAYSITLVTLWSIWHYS
Procedure: as §1, §2

α4β2-nAChRs = target: T3, α4β2-nAChRs (Homo sapiens, UniProt P17787+P43681); details: for Functional properties at α4β2-nAChRs (agonist / antagonist, type): functional screening and characterization
T3 construct: expressed in transfected cells; host or cells: HEKtsA201 cells co-expressing TN-XXL
Procedure: as §1, §2

[1] = >10 = did not pass initial screen
[2] = read-out: Antagonist KA ± SD, α4β2
[3] = competitive antagonist (^C), >10 = did not pass initial screen, vs 5-HT, read-out: Antagonist KA ± SD, 5HT3A
[4] = read-out: Agonist EC50 ± SD, 5HT3A
[5] = competitive antagonist (^C), >10 = did not pass initial screen, vs (±)-epibatidine, read-out: Antagonist KA ± SD, α4β2
[6] = competitive antagonist (^C), >10 = did not pass initial screen, vs (±)-epibatidine, read-out: Antagonist KA ± SD, α7
[7] = non-competitive antagonist (^NC), read-out: Antagonist KA ± SD, α7, non-competitive
[8] = Antagonist KA ± SD, α4β2, competitive antagonist (^C), >10 = did not pass initial screen, vs (±)-epibatidine

T3 sequence (P43681 29-627 limits assumed): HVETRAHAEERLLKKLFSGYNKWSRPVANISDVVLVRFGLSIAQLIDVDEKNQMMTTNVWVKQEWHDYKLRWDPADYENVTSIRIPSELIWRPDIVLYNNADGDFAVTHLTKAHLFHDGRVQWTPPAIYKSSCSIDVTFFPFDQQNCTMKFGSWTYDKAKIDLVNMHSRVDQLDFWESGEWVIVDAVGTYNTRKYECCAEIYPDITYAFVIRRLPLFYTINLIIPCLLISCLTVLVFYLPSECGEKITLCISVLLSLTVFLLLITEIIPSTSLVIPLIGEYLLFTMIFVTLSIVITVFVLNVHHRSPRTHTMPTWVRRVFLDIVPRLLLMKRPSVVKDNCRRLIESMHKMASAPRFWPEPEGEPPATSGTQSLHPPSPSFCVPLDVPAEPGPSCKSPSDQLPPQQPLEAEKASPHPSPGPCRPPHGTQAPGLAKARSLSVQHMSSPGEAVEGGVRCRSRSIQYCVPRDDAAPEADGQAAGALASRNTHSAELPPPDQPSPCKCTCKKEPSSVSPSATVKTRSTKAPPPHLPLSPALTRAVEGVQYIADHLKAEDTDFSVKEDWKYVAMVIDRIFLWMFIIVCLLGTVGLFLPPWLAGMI
T3 sequence (P17787 26-502): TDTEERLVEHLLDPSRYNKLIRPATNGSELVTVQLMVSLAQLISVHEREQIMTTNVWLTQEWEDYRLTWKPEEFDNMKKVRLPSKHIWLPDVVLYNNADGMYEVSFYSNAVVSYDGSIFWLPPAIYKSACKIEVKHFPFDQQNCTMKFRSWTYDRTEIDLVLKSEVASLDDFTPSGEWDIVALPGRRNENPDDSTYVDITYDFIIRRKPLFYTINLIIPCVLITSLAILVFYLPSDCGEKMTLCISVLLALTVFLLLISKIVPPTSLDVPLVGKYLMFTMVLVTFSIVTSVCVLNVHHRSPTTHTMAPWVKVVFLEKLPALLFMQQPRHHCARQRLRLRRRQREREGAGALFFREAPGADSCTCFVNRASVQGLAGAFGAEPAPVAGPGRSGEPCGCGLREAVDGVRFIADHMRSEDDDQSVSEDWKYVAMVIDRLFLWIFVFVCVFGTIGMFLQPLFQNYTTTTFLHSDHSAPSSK
T1 sequence (P36544 23-502): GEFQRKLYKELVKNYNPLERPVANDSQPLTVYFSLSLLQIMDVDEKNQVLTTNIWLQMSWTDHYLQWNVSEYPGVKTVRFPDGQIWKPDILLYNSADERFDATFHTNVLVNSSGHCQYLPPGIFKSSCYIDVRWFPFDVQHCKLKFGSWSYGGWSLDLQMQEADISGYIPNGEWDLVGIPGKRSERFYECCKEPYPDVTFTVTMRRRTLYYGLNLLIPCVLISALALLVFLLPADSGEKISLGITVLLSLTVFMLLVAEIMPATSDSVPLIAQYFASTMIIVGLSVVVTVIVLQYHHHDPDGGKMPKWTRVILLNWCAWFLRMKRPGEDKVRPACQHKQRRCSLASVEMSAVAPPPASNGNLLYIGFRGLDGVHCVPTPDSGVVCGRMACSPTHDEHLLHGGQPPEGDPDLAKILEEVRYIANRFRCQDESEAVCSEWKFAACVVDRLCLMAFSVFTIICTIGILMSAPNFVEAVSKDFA

Row | SMILES | EC50 (α7-nAChRs; [1]) | Functional properties at 5HT3A receptors (agonist / antagonist, type) (5HT3A receptors) | Kd (α4β2-nAChRs; [2]) [µM] | Kd (5HT3A receptors; [3]) [µM] | EC50 (5HT3A receptors; [4]) [µM] | further results
1 | c1cc2cc(-c3cn(CCCCN4CCOCC4)nn3)ccc2[nH]1 [IND6, 5-(1-(4-(Morpholin-4-yl)butyl)-1H-1,2,3-triazol-4-yl)-1H-indole] | 12200 nM |  |  |  |  | 
2 | c1cc2cc(-c3cn(CCN4CCNCC4)nn3)ccc2[nH]1 [IND9, 5-(1-(2-(Piperazin-1-yl)ethyl)-1H-1,2,3-triazol-4-yl)-1H-indole] |  | mix-competitive antagonist |  |  |  | 
3 | c1cc2cc(-c3cn(C4CCCNC4)nn3)ccc2[nH]1 (centres unmarked) [IND10, 5-(1-(Piperidin-3-yl)-1H-1,2,3-triazol-4-yl)-1H-indole] | 660 nM | mix-competitive antagonist |  |  |  | 
4 | c1cc2cc(-c3cn(CCN4CCCCCC4)nn3)ccc2[nH]1 [IND14, 5-(1-(2-(Azepan-1-yl)ethyl)-1H-1,2,3-triazol-4-yl)-1H-indole] | 780 nM | competitive antagonism |  |  |  | 
5 | c1cc2c(cc1-c1cn(CCN3CCCCC3)nn1)OCO2 [PPRD1, 1-(2-(4-(Benzo-1,3-dioxol-5-yl)-1,2,3-triazol-1-yl)ethyl)piperidine] | 7400 ± 700 nM |  | > 10 | > 10 | > 10 | 
6 | Nc1ccc(-c2cn(CCN3CCCCC3)nn2)cc1 [PPRD2, 1-(2-(4-Aminophenyl-1,2,3-triazol-1-yl)ethyl)piperidine] | 380 nM |  |  | >10 |  | Kd (α4β2-nAChRs; [5]): >10 µM; EC50 (5HT3A receptors; * partial agonist, >10 = did not pass initial screen, read-out: Agonist EC50 ± SD, 5HT3A): > 10 µM
7 | COc1ccc(-c2cn(CCN3CCCCC3)nn2)cc1 [PPRD3, 1-(2-(4-(4-Methoxyphenyl)-1,2,3-triazol-1-yl)ethyl)piperidine] | 15000 nM |  | > 10 | > 10 | > 10 | Functional properties at α7-nAChRs (agonist / antagonist) (α7-nAChRs): partial agonists
8 | Cc1ccc(-c2cn(CCN3CCCCC3)nn2)cc1 [PPRD4, 1-(2-(4-Tolyl-1,2,3-triazol-1-yl)ethyl)piperidine] | 3100 ± 800 nM |  | > 10 | > 10 | > 10 | 
9 | COc1ccc2cc(-c3cn(CCN4CCCCC4)nn3)ccc2c1 [PPRD6, 1-(2-(4-(6-Methoxynaphthalen-2-yl)-1H-1,2,3-triazol-1-yl)ethyl)piperidine] | > 10000 nM |  | > 10 | > 10 | > 10 | 
10 | Nc1ccc(-c2cn(CCN3CCCCC3)nn2)cc1 [PPRD8, 1-(2-(4-Aminophenyl-1,2,3-triazol-1-yl)ethyl)piperidine] | 2900 nM | competitive antagonist |  | 39 |  | Kd (α4β2-nAChRs; [5]): >10 µM
11 | Nc1ncnc2c1ncn2Cc1cn(CCN2CCCCC2)nn1 [PPRD10, 9-((1-(2-(Piperidin-1-yl)ethyl)-1,2,3-triazol-4-yl)methyl)-purin-6-amine] | > 10000 nM |  | > 10 | > 10 | > 10 | Kd (α7-nAChRs; [6]): 11.6 µM; Kd (α7-nAChRs; [7]): 18.9 µM
12 | COC(=O)c1ccc2[nH]cc(-c3cn(CCN4CCCCC4)nn3)c2c1 [PPRD11, Methyl 3-(1-(2-(piperidin-1-yl)ethyl)-1H-1,2,3-triazol-4-yl)-1H-indole-5-carboxylate] |  |  | 6.5 ± 1.7 | > 10 | > 10 | Kd (α7-nAChRs; [6]): 6.6 ± 2.2 µM; Functional properties at α7-nAChRs (agonist / antagonist) (α7-nAChRs): weak and non-selective α7-nAChR antagonists; Kd (α7-nAChRs; [7]): 6.6 ± 1.7 µM; Functional properties at α4β2-nAChRs (agonist / antagonist, type) (α4β2-nAChRs): α4β2-nAChR antagonists; also recorded: competitive antagonist
13 | Clc1ccc(-c2cn(CCN3CCCCC3)nn2)cc1 [PPRD13, 1-(2-(4-(4-Chlorophenyl)-1,2,3-triazol-1-yl)ethyl)piperidine] | 17600 ± 4600 nM |  | > 10 | > 10 | > 10 | Functional properties at α7-nAChRs (agonist / antagonist) (α7-nAChRs): partial agonists
14 | COc1ccc(-c2cn(C3CN4CCC3CC4)nn2)cc1 (centres unmarked) [QND3, 3-(4-(4-Methoxyphenyl)-1,2,3-triazol-1-yl)quinuclidine] | 100 nM | 5HT3A receptor agonist properties |  |  |  | Kd (α4β2-nAChRs; [8]): > 10 µM; EC50 (5HT3A receptors): 5.7 ± 1.7 µM
15 | Cc1ccc(-c2cn(C3CN4CCC3CC4)nn2)cc1 (centres unmarked) [QND4, 3-(4-Tolyl-1,2,3-triazol-1-yl)quinuclidine] | 200 nM | antagonists and 5HT3A antagonist properties and mix-competitive antagonist |  |  |  | Kd (α4β2-nAChRs; [5]): >10 µM; Antagonist KA ± SD, 5HT3A (5HT3A receptors; competitive antagonist (^C), >10 = did not pass initial screen, vs 5-HT): 0.50 ± 0.27^C, μM; Antagonist KA ± SD, 5HT3A, non-competitive (5HT3A receptors; non-competitive antagonist (^NC)): 0.53 ± 0.18^NC μM
16 | O=Cc1c[nH]c2ccc(-c3cn(C4CN5CCC4CC5)nn3)cc12 (centres unmarked) [QND5, 5-(1-(Quinuclidin-3-yl)-1,2,3-triazol-4-yl)-indole-3-carbaldehyde] | 270 nM |  |  |  | 0.16 ± 0.04 | Kd (α4β2-nAChRs; [8]): > 10 µM
17 | c1ccc(-c2ccc(-c3cn(C4CN5CCC4CC5)nn3)cc2)cc1 (centres unmarked) [QND7, 3-(4-(Biphenyl-4-yl)-1,2,3-triazol-1-yl)quinuclidine] |  |  |  | > 10 | > 10 | Kd (α7-nAChRs; Antagonist KA ± SD, α7, competitive antagonist (^C), >10 = did not pass initial screen, vs (±)-epibatidine): 6.7 ± 2.5 µM; Functional properties at α7-nAChRs (agonist / antagonist) (α7-nAChRs): antagonistic properties; also recorded: weak α7-nAChR antagonist; Kd (α7-nAChRs; [7]): 26 ± 10 µM; Kd (α4β2-nAChRs; [8]): > 10 µM
18 | Nc1ncnc2c1ncn2Cc1cn(C2CN3CCC2CC3)nn1 (centres unmarked) [QND10, 9-((1-(Quinuclidin-3-yl)-1,2,3-triazol-4-yl)methyl)-purin-6-amine] | 29500 nM and 30000 nM |  |  | > 10 | > 10 | Kd (α4β2-nAChRs; [8]): > 10 µM
19 | COC(=O)c1ccc2[nH]cc(-c3cn(C4CN5CCC4CC5)nn3)c2c1 (centres unmarked) [QND11, Methyl 3-(1-(quinuclidin-3-yl)-1,2,3-triazol-4-yl)-indole-5-carboxylate] | 1610 ± 360 nM | antagonists; also recorded: non-competitive antagonist |  |  |  | Kd (α4β2-nAChRs; [8]): 9.3 ± 4.3 µM; Functional properties at α4β2-nAChRs (agonist / antagonist, type) (α4β2-nAChRs): competitive antagonism; Kd (α4β2-nAChRs; read-out: Antagonist KA ± SD, α4β2, non-competitive): 37 ± 22 µM; Kd (5HT3A receptors; non-competitive antagonist (^NC), read-out: Antagonist KA ± SD, 5HT3A, non-competitive): 0.08 ± 0.01 µM
